Assay results published in patent US20230248741A1, “Compositions and Methods for Lowering Triglycerides in a Subject with Reduced Kidney Function and Diabetes Mellitus” (Amarin Pharmaceuticals Ireland Limited, priority 2018, published 2023).

Test system: patients with diabetes mellitus and eGFR <90 mL/min/1.73 m^2 for ≥3 months
Test: ANCHOR post-hoc: lipids/lipoproteins, apolipoproteins, oxidation and inflammation markers
Format: in vivo, human
Experimental: A multi-center, placebo-controlled, randomized, double-blind, 12-week study is performed to evaluate the efficacy and safety of >96% E-EPA in patients with fasting triglyceride levels ≥200 mg/dl and <500 mg/dl despite statin therapy (the mean of two qualifying entry values needs to be ≥185 mg/dl and at least one of the values needs to be ≥200 mg/dl). The primary objective of the study is to determine the efficacy of >96% E-EPA 2 g daily and 4 g daily, compared to placebo, in lowering fasting TG levels in patients with high risk for cardiovascular disease and with fasting TG levels ≥200 mg/dL and <500 mg/dL, despite treatment to LDL-C goal on statin therapy.
The primary efficacy variable for the double-blind treatment period is percent change in TG from baseline to Week 12 endpoint. The secondary efficacy variables for the double-blind treatment period include the following: • Percent changes in total cholesterol (TC), high-density lipoprotein cholesterol (HDL-C), LDL-C, calculated non-HDL-C, and very low-density lipoprotein cholesterol (VLDL-C) from baseline to Week 12 endpoint; • Percent change in very low-density lipoprotein TG from baseline to Week 12; • Percent changes in apolipoprotein A-I (apo A-I), apolipoprotein B (apo B), and apo A-I/apo B ratio from baseline to Week 12; • Percent changes in lipoprotein(a) from baseline to Week 12; • Percent changes in LDL particle number and size, measured by nuclear magnetic resonance, from baseline to Week 12; • Percent change in remnant-like particle cholesterol from baseline to Week 12; • Percent change in oxidized LDL from baseline to Week 12; • Changes in FPG and HbA1c from baseline to Week 12; • Change in insulin resistance, as assessed by the homeostasis model index insulin resistance, from baseline to Week 12; • Percent change in lipoprotein associated phospholipase A2 (Lp-PLA2) from baseline to Week 12; • Change in intracellular adhesion molecule-1 from baseline to Week 12; • Change in interleukin-2 from baseline to Week 12; • Change in plasminogen activator inhibitor-1 from baseline to Week 12. Note: this parameter will only be collected at sites with proper storage conditions; • Change in hsCRP from baseline to Week 12; and • Change in plasma concentration and red blood cell membrane content of fatty acid from baseline to Week 12 including EPA, DPA, DHA, AA, dihomo-γ-linolenic acid (DGLA), the ratio of EPA/AA, ratio of oleic acid/stearic acid (OA/SA), and the ratio of total omega-3 acids over total omega-6 acids.
CVD-related (e.g., atherogenic) parameters were analyzed in a post-hoc study of 198 patients from the multi-center, placebo-controlled, randomized double-blind, 12-week study described in Example 1. These 198 patients have reduced kidney reduced function (e.g., eGFR<90 mL/min/1.73 m^2 for ≥3 months) and diabetes mellitus.
Objective. The primary objective of this post-hoc study was to determine if and how 4 g of daily of >96% E-EPA, compared to placebo, affects patients with reduced kidney function, diabetes mellitus, and high triglyceride levels. The secondary objective was to determine if and how 4 g daily >96% E-EPA, compared to placebo, affected CVD-related parameters in patients having a high risk for CVD and fasting TG levels […]200 mg/dL and <500 mg/dL, despite treatment to LDL-C goal on statin therapy. These CVD-parameters include lipid levels, lipoprotein levels, and inflammatory markers, such as TC, LDL-C, HDL-C, VLDL-C, VLDL-TG, RLP-C, non-HDL-C, Apo B, Apo C-III, Lp-PLA2, hsCRP, and ox-LDL, and in plasma and RBC EPA concentration. CVD-parameters were analyzed for median difference in percent change from baseline to week 12 in subjects receiving 4 g/day of E-EPA and those receiving the placebo.
Subjects: 98 patients were randomized to E-EPA and 100 patients were randomized to placebo. In total, atherogenic parameters were analyzed in all 198 patients, 56% of which were male and 97% of which were white. The mean age of the 198 patients was 63 years old. […]

[1] = 4 g/day group, before treatment
[2] = 4 g/day, week 12, Hodges-Lehmann

CC/C=C\C/C=C\C/C=C\C/C=C\C/C=C\CCCC(=O)OCC [E-EPA, ethyl eicosapentaenoate]
RLP-C Baseline, median (4 g/day group (n = 34), before treatment): 14.0 mg/dL
Ox-LDL Baseline, median (IQR) (4 g/day group (n = 41), before treatment): 54.2 (15.8) U/L
Apo B Baseline, median (IQR) [1]: 92.0 (22.0) mg/dL
Apo C-III Baseline, median (IQR) [1]: 42.0 (20.0) mg/dL
HDL-C Baseline, median [1]: 36.0 mg/dL
LDL-C Baseline, median [1]: 82.5 mg/dL
Lp-PLA2 Baseline, median (IQR) [1]: 178.0 (54.0) ng/mL
Non-HDL-C Baseline, median [1]: 128.5 mg/dL
TC Baseline, median [1]: 169.5 mg/dL
TG Baseline, median [1]: 262.5 mg/dL
VLDL-C Baseline, median [1]: 42.0 mg/dL
VLDL-TG Baseline, median [1]: 186.0 mg/dL
hsCRP Baseline, median (IQR) [1]: 2.2 (2.9) mg/L
reduction of triglycerides compared to placebo (4 g/day, 12 weeks, P<0.0001): about 19.7%
Apo B Change From Baseline, %, median (IQR) (4 g/day, week 12): −3.5 (17.0) %
Apo B End of Treatment, median (IQR) (4 g/day, week 12): 88.0 (25.0) mg/dL
Apo C-III Change From Baseline, %, median (IQR) (4 g/day, week 12): −12.3 (45.6) %
Apo C-III End of Treatment, median (IQR) (4 g/day, week 12): 36.5 (23.0) mg/dL
HDL-C Change From Baseline, %, median (4 g/day, week 12): −3.0%
HDL-C End of Treatment, median (4 g/day, week 12): 37.0 mg/dL
LDL-C Change From Baseline, %, median (4 g/day, week 12): −2.1%
LDL-C End of Treatment, median (4 g/day, week 12): 83.0 mg/dL
Lp-PLA2 Change From Baseline, %, median (IQR) (4 g/day, week 12): −14.4 (16.5) %
Lp-PLA2 End of Treatment, median (IQR) (4 g/day, week 12): 160.0 (52.0) ng/mL
Non-HDL-C Change From Baseline, %, median (4 g/day, week 12): −6.0%
Non-HDL-C End of Treatment, median (4 g/day, week 12): 120.5 mg/dL
Ox-LDL Change From Baseline, %, median (IQR) (4 g/day, week 12): −8.2 (17.8) %
Ox-LDL End of Treatment, median (IQR) (4 g/day, week 12): 49.5 (12.8) U/L
TC Change From Baseline, %, median (4 g/day, week 12): −5.2%
TC End of Treatment, median (4 g/day, week 12): 160.5 mg/dL
TG Change From Baseline, %, median (4 g/day, week 12): −19.3%
TG End of Treatment, median (4 g/day, week 12): 209.8 mg/dL
VLDL-C Change From Baseline, %, median (4 g/day, week 12): −12.3%
VLDL-C End of Treatment, median (4 g/day, week 12): 36.5 mg/dL
VLDL-TG Change From Baseline, %, median (4 g/day, week 12): −19.2%
VLDL-TG End of Treatment, median (4 g/day, week 12): 146.0 mg/dL
hsCRP Change From Baseline, %, median (IQR) (4 g/day, week 12): −2.4 (81.7) %
hsCRP End of Treatment, median (IQR) (4 g/day, week 12): 1.7 (3.0) mg/L
Apo B Median Difference in % Change From Baseline vs. Placebo [2]: −10.1, <0.0001%
Apo C-III Median Difference in % Change From Baseline vs. Placebo [2]: −19.0, 0.0006%
HDL-C Median Difference in % Change From Baseline vs. Placebo [2]: −7.0, 0.0009%
LDL-C Median Difference in % Change From Baseline vs. Placebo [2]: −7.1, 0.0375%
Lp-PLA2 Median Difference in % Change From Baseline vs. Placebo [2]: −16.6, <0.0001%
Non-HDL-C Median Difference in % Change From Baseline vs. Placebo [2]: −13.7, <0.0001%
Ox-LDL Median Difference in % Change From Baseline vs. Placebo [2]: −16.2, <0.0001%
RLP-C Median Difference in % Change From Baseline vs. Placebo [2]: −35.4, 0.0029%
TC Median Difference in % Change From Baseline vs. Placebo [2]: −12.5, <0.0001%
TG Median Difference in % Change From Baseline for Icosapent Ethyl 4 g/day vs. Placebo [2]: −19.7, <0.0001%
VLDL-C Median Difference in % Change From Baseline vs. Placebo [2]: −19.0, 0.0006%
VLDL-TG Median Difference in % Change From Baseline vs. Placebo [2]: −22.3, <0.0001%
hsCRP Median Difference in % Change From Baseline vs. Placebo [2]: −24.4, 0.0120%
RLP-C Change From Baseline, %, median (4 g/day, week 12, n = 34): −28.9%
RLP-C End of Treatment, median (4 g/day, week 12, n = 34): 9.5 mg/dL
